Test results as given in patent publication US6737383B1, “Herbicidal oxadiazolidines” (priority 1999, dated 2004).

Assays:
sugar beet = assay: Test B pre/postemergence sugar beet; assay type: in vivo, Beta vulgaris
Summary of the method: (§1)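 Response is a visual 0-to-10 score relative to untreated plants, where 0 means no effect and 10 means complete control, taken twelve to sixteen days after application. Treatments went onto soil at planting and onto foliage of 1- to 4-leaf plants, using a surfactant-containing non-phytotoxic solvent.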

bedstraw = assay: Test B pre/postemergence bedstraw; assay type: in vivo, Galium aparine
Summary of the method: as §1

velvetleaf = assay: Test B pre/postemergence velvetleaf; assay type: in vivo, Abutilon theophrasti
Summary of the method: as §1

cocklebur = assay: Test B pre/postemergence cocklebur; assay type: in vivo, Xanthium strumarium
Summary of the method: as §1

blackgrass = assay: Test B pre/postemergence blackgrass; assay type: in vivo, Alopecurus myosuroides
Summary of the method: as §1

crabgrass = assay: Test B pre/postemergence crabgrass; assay type: in vivo, Digitaria sanguinalis
Summary of the method: as §1

purple nutsedge = assay: Test B pre/postemergence purple nutsedge; assay type: in vivo, Cyperus rotundus
Summary of the method: as §1

corn = assay: Test B pre/postemergence corn; assay type: in vivo, Zea mays
Summary of the method: as §1

giant foxtail = assay: Test B pre/postemergence giant foxtail; assay type: in vivo, Setaria faberii
Summary of the method: as §1

pigweed = assay: Test B pre/postemergence pigweed; assay type: in vivo, Amaranthus retroflexus
Summary of the method: as §1

rape = assay: Test B pre/postemergence rape; assay type: in vivo, Brassica napus
Summary of the method: as §1

soybean = assay: Test B pre/postemergence soybean; assay type: in vivo, Glycine max
Summary of the method: as §1

wheat = assay: Test B pre/postemergence wheat; assay type: in vivo, Triticum aestivum
Summary of the method: as §1

wild oat = assay: Test B pre/postemergence wild oat; assay type: in vivo, Avena fatua
Summary of the method: as §1

morningglory = assay: Test B pre/postemergence morningglory; assay type: in vivo, Ipomoea hederacea
Summary of the method: as §1

surinam grass = assay: Test B pre/postemergence surinam grass; assay type: in vivo, Brachiaria decumbens
Summary of the method: as §1

[1] = Postemergence, Rate 62 g/ha, scale of 0 to 10, 0 is no effect, 10 is complete control
[2] = Postemergence, Rate 500 g/ha, scale of 0 to 10 where 0 is no effect and 10 is complete control
[3] = Preemergence, Rate 62 g/ha, scale 0 to 10 (0 no effect, 10 complete control)
[4] = Preemergence, Rate 125 g/ha, scale 0 to 10, 0 is no effect, 10 is complete control
[5] = Preemergence, Rate 500 g/ha, scale of 0 to 10 where 0 is no effect and 10 is complete control
[6] = Rate 250 g/ha, Postemergence, scale of 0 to 10 where 0 is no effect and 10 is complete control
[7] = Postemergence, Rate 125 g/ha, scale 0 to 10, 0 is no effect, 10 is complete control

CCOCn1c(=O)on(C(=O)N(c2ccccc2)C(C)C)c1=O [Compound 563]
Sugarbeets plant response rating (sugar beet; [1]): 0
Plant response rating, Sugarbeets (sugar beet; [2]): 0
Sugarbeets plant response rating (sugar beet; [3]): 2
Sugarbeets plant response rating (sugar beet; [4]): 3
Sugarbeets plant response rating (0 to 10 scale) (sugar beet; Preemergence, Rate 250 g/ha): 3
Sugarbeets plant response rating (sugar beet; [5]): 4
Plant response rating, Sugarbeets (sugar beet; [6]): 0
Bedstraw plant response rating (bedstraw; [1]): 0
Bedstraw plant response rating (bedstraw; [7]): 0
Plant response rating, Bedstraw (bedstraw; [2]): 0
Bedstraw plant response rating (bedstraw; [3]): 0
Bedstraw plant response rating (bedstraw; [4]): 0
Bedstraw plant response rating (0 to 10 scale) (bedstraw; Preemergence, Rate 250 g/ha): 0
Bedstraw plant response rating (bedstraw; [5]): 0
Velvetleaf plant response rating (velvetleaf; [1]): 0
Plant response rating, Velvetleaf (velvetleaf; [2]): 4
Velvetleaf plant response rating (velvetleaf; [3]): 3
Velvetleaf plant response rating (velvetleaf; [4]): 3
Velvetleaf plant response rating (0 to 10 scale) (velvetleaf; Preemergence, Rate 250 g/ha): 6
Velvetleaf plant response rating (velvetleaf; [5]): 7
Plant response rating, Velvetleaf (velvetleaf; [6]): 2
Cocklebur plant response rating (cocklebur; [1]): 0
Cocklebur plant response rating (cocklebur; [7]): 0
Plant response rating, Cocklebur (cocklebur; [2]): 2
Cocklebur plant response rating (cocklebur; [3]): 0
Cocklebur plant response rating (cocklebur; [4]): 0
Cocklebur plant response rating (0 to 10 scale) (cocklebur; Preemergence, Rate 250 g/ha): 0
Cocklebur plant response rating (cocklebur; [5]): 2
Plant response rating, Cocklebur (cocklebur; [6]): 0
Blackgrass plant response rating (blackgrass; [1]): 0
Blackgrass plant response rating (blackgrass; [7]): 0
Plant response rating, Blackgrass (blackgrass; [2]): 4
Blackgrass plant response rating (blackgrass; [3]): 2
Blackgrass plant response rating (blackgrass; [4]): 8
Blackgrass plant response rating (0 to 10 scale) (blackgrass; Preemergence, Rate 250 g/ha): 9
Blackgrass plant response rating (blackgrass; [5]): 9
Plant response rating, Blackgrass (blackgrass; [6]): 4
Crabgrass plant response rating (crabgrass; [1]): 9
Crabgrass plant response rating (crabgrass; [7]): 9
Plant response rating, Crabgrass (crabgrass; [2]): 9
Crabgrass plant response rating (crabgrass; [3]): 8
Crabgrass plant response rating (crabgrass; [4]): 9
Crabgrass plant response rating (0 to 10 scale) (crabgrass; Preemergence, Rate 250 g/ha): 10
Crabgrass plant response rating (crabgrass; [5]): 9
Plant response rating, Crabgrass (crabgrass; [6]): 8
Nutsedge plant response rating (purple nutsedge; [1]): 0
Nutsedge plant response rating (purple nutsedge; [7]): 0
Nutsedge plant response rating (purple nutsedge; [3]): 0
Nutsedge plant response rating (purple nutsedge; [4]): 0
Nutsedge plant response rating (0 to 10 scale) (purple nutsedge; Preemergence, Rate 250 g/ha): 0
Plant response rating, Nutsedge (purple nutsedge; [6]): 0
Corn plant response rating (corn; [1]): 0
Corn plant response rating (corn; [7]): 0
Plant response rating, Corn (corn; [2]): 8
Corn plant response rating (corn; [3]): 0
Corn plant response rating (corn; [4]): 0
Corn plant response rating (0 to 10 scale) (corn; Preemergence, Rate 250 g/ha): 4
Corn plant response rating (corn; [5]): 9
Plant response rating, Corn (corn; [6]): 4
Giant foxtail plant response rating (giant foxtail; [1]): 6
Giant foxtail plant response rating (giant foxtail; [7]): 8
Plant response rating, Giant foxtail (giant foxtail; [2]): 9
Giant foxtail plant response rating (giant foxtail; [3]): 9
Giant foxtail plant response rating (giant foxtail; [4]): 9
Giant foxtail plant response rating (0 to 10 scale) (giant foxtail; Preemergence, Rate 250 g/ha): 10
Giant foxtail plant response rating (giant foxtail; [5]): 10
Plant response rating, Giant foxtail (giant foxtail; [6]): 8
Redroot pigweed plant response rating (pigweed; [1]): 0
Plant response rating, Redroot pigweed (pigweed; [2]): 5
Redroot pigweed plant response rating (pigweed; [3]): 4
Redroot pigweed plant response rating (pigweed; [4]): 9
Redroot pigweed plant response rating (0 to 10 scale) (pigweed; Preemergence, Rate 250 g/ha): 9
Redroot pigweed plant response rating (pigweed; [5]): 9
Plant response rating, Redroot pigweed (pigweed; [6]): 5
Rape plant response rating (rape; [1]): 0
Rape plant response rating (rape; [7]): 0
Plant response rating, Rape (rape; [2]): 5
Rape plant response rating (rape; [3]): 0
Rape plant response rating (rape; [4]): 4
Rape plant response rating (0 to 10 scale) (rape; Preemergence, Rate 250 g/ha): 9
Rape plant response rating (rape; [5]): 9
Plant response rating, Rape (rape; [6]): 5
Soybean plant response rating (soybean; [1]): 5
Plant response rating, Soybean (soybean; [2]): 5
Soybean plant response rating (soybean; [3]): 0
Soybean plant response rating (soybean; [4]): 0
Soybean plant response rating (0 to 10 scale) (soybean; Preemergence, Rate 250 g/ha): 3
Soybean plant response rating (soybean; [5]): 6
Plant response rating, Soybean (soybean; [6]): 3
Wheat plant response rating (wheat; [1]): 0
Plant response rating, Wheat (wheat; [2]): 0
Wheat plant response rating (wheat; [3]): 3
Wheat plant response rating (wheat; [4]): 8
Wheat plant response rating (0 to 10 scale) (wheat; Preemergence, Rate 250 g/ha): 9
Wheat plant response rating (wheat; [5]): 10
Plant response rating, Wheat (wheat; [6]): 0
Wild oats plant response rating (wild oat; [1]): 0
Plant response rating, Wild oats (wild oat; [2]): 0
Wild oats plant response rating (wild oat; [3]): 2
Wild oats plant response rating (wild oat; [4]): 9
Wild oats plant response rating (0 to 10 scale) (wild oat; Preemergence, Rate 250 g/ha): 9
Wild oats plant response rating (wild oat; [5]): 10
Plant response rating, Wild oats (wild oat; [6]): 0
Morningglory plant response rating (morningglory; [1]): 4
Morningglory plant response rating (morningglory; [7]): 6
Plant response rating, Morningglory (morningglory; [2]): 10
Morningglory plant response rating (morningglory; [3]): 0
Morningglory plant response rating (morningglory; [4]): 0
Morningglory plant response rating (0 to 10 scale) (morningglory; Preemergence, Rate 250 g/ha): 0
Morningglory plant response rating (morningglory; [5]): 3
Plant response rating, Morningglory (morningglory; [6]): 10
B. signalgrass plant response rating (surinam grass; [1]): 0
B. signalgrass plant response rating (surinam grass; [7]): 4
Plant response rating, B. signalgrass (surinam grass; [2]): 7
B. signalgrass plant response rating (surinam grass; [3]): 3
B. signalgrass plant response rating (surinam grass; [4]): 9
B. signalgrass plant response rating (0 to 10 scale, 0 is no effect, 10 is complete control) (surinam grass; Preemergence, Rate 250 g/ha): 9
B. signalgrass plant response rating (surinam grass; [5]): 10
Plant response rating, B. signalgrass (surinam grass; [6]): 5
